From patent US20240188561A1, “ADDITIVES FOR ENHANCING THE PESTICIDAL EFFECTIVENESS OF PESTICIDAL MICROORGANISMS” (priority 2021, published 2024)

How the values were obtained:
[1] = tested on: Downy Mildew (Plasmopara viticola); assay: Spray trial on first year grape vines, Downy Mildew infection; type: in vivo; settings: in words
Experimental: Eight solutions were prepared as described in Table 2a. These solutions were sprayed on first year grape vines showing no signs of Downy Mildew (Plasmopara viticola). […] Six of the solutions included Additive Blend 1 (a 50:50 blend of POE 10 soybean oil and PEG 400 dioleate).
Four applications were made over a month to the same grape vines. At the end of the month, the infection rates of Downy Mildew were evaluated by comparing to untreated grape vines.
Eight solutions were prepared as described in Table 6a. These solutions were sprayed on first year grape vines showing no signs of Downy Mildew (Plasmopara viticola). […] Six of the solutions included PEG 400 dioleate.

Pseudomonas fluorescens = assay: Additive compatibility with microbial growth (growth slope by OD 620 nm); type: cell-based; settings: additive 0.01-5 %, exposed 4 hours at 16° C., then tryptic soy broth 30° C., slope compared to 0% sample
Bacillus subtilis = assay: as above; type: cell-based; settings: additive 0.01-5 %, exposed 4 hours at 16° C., then tryptic soy broth 30° C., slope compared to 0% sample
[2] = tested on: Bacillus amyloliquefaciens; assay: as above; type: cell-based; settings: additive 0.01-5 %, exposed 4 hours at 16° C., then tryptic soy broth 30° C., slope compared to 0% sample
Bacillus firmus = assay: as above; type: cell-based; settings: additive 0.01-5 %, exposed 4 hours at 16° C., then tryptic soy broth 30° C., slope compared to 0% sample
[3] = tested on: Powdery Mildew (Podosphaera xanthii); assay: Spray trial on pumpkin plants, Powdery Mildew infection; type: in vivo; settings: in words
Experimental: Eight solutions were prepared as described in Table 5a. These solutions were sprayed on pumpkin plants showing no signs of Powdery Mildew (Podosphaera xanthii). […] Six of the solutions included methyl soyate.
Four applications were made over a month to the same pumpkin plants. At the end of the month, the infection rates of Powdery Mildew were evaluated by comparing to untreated pumpkin plants.

Substance	Control of Downy Mildew (lower %-Infection) when additive was added to Serifel Biofungicide spray solutions [1]	Influence of additive on microbial growth slope (compatibility), Pseudomonas fluorescens (Pseudomonas fluorescens)	Influence of additive on microbial growth slope (compatibility), Bacillus subtilis (Bacillus subtilis)	Influence of additive on microbial growth slope (compatibility), Bacillus amyloliquefaciens [2]	Influence of additive on microbial growth slope (compatibility), Bacillus firmus (Bacillus firmus)	Control of Powdery Mildew (lower %-Infection) when additive was added to Serifel Biofungicide spray solutions [3]
PEG 400 dioleate [v-3]	improved control	E (E represents an Enhancing result)	E (E represents an Enhancing result)	E (E represents an Enhancing result)	E (E represents an Enhancing result)	
Soya fatty acid methyl ester [ii-3]		N	N	E (E represents an Enhancing result)	N	improved control
Olleyl-Cetyl alcohol (90% Oleyl) [xvi-3]		S	S	S	S	
2-propylheptanol Alkoxylate with 5 moles EO [xi-4]		S	S	S	S	
C8-C10 dimethyl amide [xv-2]		S	S	S	S	
